According to publication PMC8623418, “Novel Multitarget Hydroxamic Acids with a Natural Origin CAP Group against Alzheimer’s Disease: Synthesis, Docking and Biological Evaluation” (Pharmaceutics, 2021):

Legend:
[1] = DPPH test of antiradical activity; details: substances at 100 μM, mean ± SEM
Description: The DPPH test was used to examine antiradical activity based on the ability of a stable chromogen radical of 2,2-diphenyl-1-picrylhydrazyl (DPPH) to remove a hydrogen atom, which is accompanied by a change in the absorption maximum in the electronic absorption spectra. The amount of reduced DPPH was measured using a Cytation ™ 3 multifunctional plate analyzer (BioTek Instruments, Inc., Winooski, VT, USA) at a wavelength of 517 nm.
The antiradical activity of the test compounds was evaluated by the DPPH test, based on the ability of antioxidants to donate an electron to the stable chromogen radical DPPH, converting it into a nonradical form and neutralizing its activity. […] The chromogenic free radical DPPH used in this test has a large size, and substances even with a similar chemical structure may have different antiradical properties due to spatially difficult access.

β-amyloid 1–42 = test system: T1, β-amyloid 1–42; assay: β-amyloid 1–42 aggregation, Thioflavin T fluorescence; format: biochemical; details: 100 μM, 72 h incubation
T1 construct: fragments Aβ1–40 and Aβ1–42
Description: (§1) The effect of the studied compounds on the aggregation of β-amyloid (1–40/1–42) was analyzed using the method of recording Thioflavin T fluorescence (10 µM) for 72 h at 37 °C. The fluorescence signal was measured using a multifunctional flatbed analyzer, the Cytation ™ 3 (BioTek Instruments, Inc., Winooski, VT, USA), at λex = 450 nm, λem = 480 nm.
(§2) The effect of hydroxamic acids on the stage of aggregation of the pathological β-amyloid peptide was investigated for 72 h using two model systems—fragments Aβ1–40 and Aβ1–42. The fluorophore Thioflavin T was used as an indicator of the ongoing fibrillation process, the interaction of which with proteins in the state of amyloid fibrils leads to an increase in the fluorescence signal.

HEK 293 cells = assay: MTT cell viability, HEK 293; format: cell-based; details: Homo sapiens, HEK293; HEK-293, MTT test
Description: (§3) The effect of the hydroxamic acids on the viability of cells obtained from human embryonic kidneys, HEK 293, as well as the native form of human neuroblastoma, SH-SY5Y, was evaluated in the MTT test. Using a multifunctional flatbed analyzer, Cytation™3 (BioTek Instruments, Inc., Winooski, VT, USA), the optical density was determined at a wavelength of 530 nm. Based on the dose-dependent curves, the concentration values leading to 50% inhibition of cell population growth (IC50) were calculated.
(§4) Due to the fact that most compounds of the class of hydroxamic acids have high cytotoxic activity and are mainly used as anticancer drugs, their use as neuroprotective drugs is limited. Since the goal of our work was to search for agents for the pharmacological correction of neurodegenerative diseases, a necessary part of the biological activity study of the synthesized hydroxamic acids was to determine their effect on the survival of cell cultures. In our work, we used neuron-like neuroblastoma cells SH-SY5Y and a healthy cell line isolated from the human embryonic kidney, HEK 293.

β-amyloid 1–40 = β-amyloid 1–40 aggregation, Thioflavin T fluorescence; format: biochemical; details: 100 μM, 72 h incubation
Description: as §1, §2

[2] = test system: lipid peroxidation (LPO) of rat brain homogenate; assay: Lipid peroxidation (LPO) of rat brain homogenate, TBARS test; format: biochemical; details: substances at 100 μM, mean ± SEM; for % of Activity, Inhibition of LPO, Fe (II): Fe (II)-induced; for % of Activity, Inhibition of LPO, t-BHP: t-BHP-induced
Description: To obtain the brain homogenate, rats preliminarily anesthetized with CO2 were decapitated with a guillotine. The brain was homogenized in a buffer containing KCl (120 mM) and HEPES (20 mM), pH = 7.4 at 4 °C, and centrifuged at 1500 rpm to obtain a supernatant. The protein was quantified according to the standard microbiuret method.
To investigate the effect of the compounds on lipid peroxidation (LPO) of rat brain homogenate, we used the modified version of the TBARS test, which is based on the reaction of 2-thiobarbituric acid with the end LPO product—malonic dialdehyde (MDA). The plate well, according to the experimental scheme, contained the compounds under study (100 μM), rat brain homogenate (2 mg/mL), as well as ferrous iron ions ([…]) at a concentration of 500 μM and 1.6 mM tert-butyl hydroxyperoxide as an initiator. After 30 min of incubation at 37 °C, TBARS reagent was added to all samples, incubated for 90 min at 90 °C, and centrifuged at 6000 rpm for 15 min. The optical density of the selected supernatant was measured on a Victor 3 plate reader (Perkin Elmer) at λ = 540 nm.
A rat brain homogenate preparation containing fragments of cell membranes was used as a model system to investigate the antioxidant activity of the hydroxamic acids. To initiate the process of lipid peroxidation, ferrous ions were used to trigger the Fenton reaction, during which the iron valence changes and a highly reactive hydroxyl radical is formed, and tert-butyl hydroxyperoxide as a direct source of free radicals.

SH-SY5Y cells = assay: MTT cell viability, SH-SY5Y; format: cell-based; details: Homo sapiens, MTT test
Description: as §3, §4

HDAC6 = target: T2, HDAC6 (Homo sapiens, UniProt Q9UBN7); assay: HDAC6 enzyme activity, FLUOR DE LYS fluorometric kit; format: biochemical; details: mean ± SEM; read-out: IC50 HDAC6 Inhibitory Activity
T2 construct: purchased Enzo Life Sciences (Enzo Biochem, New York, NY, USA)
T2 sequence (Q9UBN7 1-1215): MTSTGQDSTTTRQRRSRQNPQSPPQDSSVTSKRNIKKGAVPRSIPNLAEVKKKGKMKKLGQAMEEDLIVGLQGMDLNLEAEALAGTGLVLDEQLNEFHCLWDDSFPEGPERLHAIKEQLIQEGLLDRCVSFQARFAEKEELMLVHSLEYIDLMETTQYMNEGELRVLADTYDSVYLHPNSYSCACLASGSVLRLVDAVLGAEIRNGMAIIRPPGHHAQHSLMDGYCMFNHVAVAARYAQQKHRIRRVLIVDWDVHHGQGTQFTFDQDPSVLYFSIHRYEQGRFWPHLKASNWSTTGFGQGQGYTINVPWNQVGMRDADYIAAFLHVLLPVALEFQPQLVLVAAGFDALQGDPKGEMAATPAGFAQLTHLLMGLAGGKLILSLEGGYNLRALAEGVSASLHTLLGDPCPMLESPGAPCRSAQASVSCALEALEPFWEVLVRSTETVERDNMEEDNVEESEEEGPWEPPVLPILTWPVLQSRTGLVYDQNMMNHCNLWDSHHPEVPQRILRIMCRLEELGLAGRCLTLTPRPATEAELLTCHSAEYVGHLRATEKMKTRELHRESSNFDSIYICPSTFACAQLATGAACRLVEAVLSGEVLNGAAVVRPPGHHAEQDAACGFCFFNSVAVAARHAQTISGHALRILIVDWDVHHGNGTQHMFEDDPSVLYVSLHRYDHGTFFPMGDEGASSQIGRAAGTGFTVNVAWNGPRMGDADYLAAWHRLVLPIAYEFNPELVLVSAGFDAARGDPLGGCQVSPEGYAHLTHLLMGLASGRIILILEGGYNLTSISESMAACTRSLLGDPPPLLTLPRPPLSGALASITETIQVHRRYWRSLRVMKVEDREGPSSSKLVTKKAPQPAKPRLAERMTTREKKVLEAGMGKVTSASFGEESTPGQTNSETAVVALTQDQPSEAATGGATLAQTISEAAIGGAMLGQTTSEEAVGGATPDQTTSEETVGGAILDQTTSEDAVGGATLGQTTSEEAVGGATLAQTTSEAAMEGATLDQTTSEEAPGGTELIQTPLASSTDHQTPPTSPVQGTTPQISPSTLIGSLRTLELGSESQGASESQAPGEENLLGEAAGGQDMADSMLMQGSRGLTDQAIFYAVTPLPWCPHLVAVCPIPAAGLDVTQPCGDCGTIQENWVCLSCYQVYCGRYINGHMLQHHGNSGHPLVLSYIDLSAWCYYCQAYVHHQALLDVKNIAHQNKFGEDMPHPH

Row | SMILES | % of Activity, Antiradical Activity [1] | Effect on β-amyloid 1–42 aggregation (β-amyloid 1–42) | IC50 (HEK 293 cells) | Effect on β-amyloid 1–40 aggregation (β-amyloid 1–40) | % of Activity, Inhibition of LPO, Fe (II) [2] | % of Activity, Inhibition of LPO, t-BHP [2] | IC50 (SH-SY5Y cells) | IC50 (HDAC6) | melting point
1 | CC1(C)[C@@H]2CCC1(C)[C@H](NC(=O)/C=C/c1ccc(C(=O)NO)cc1)C2 [compound 23, N-Hydroxy-4-((E)-3-Oxo-3-(((2R,4R)-1,7,7-Trimethylbicyclo[2.2.1]heptan-2-yl)amino)prop-1-en-1-yl)benzamide] | 20.14 ± 1.28% | noticeable fibrillation inhibition | 68.3 ± 2.22 µM | noticeable fibrillation inhibition | 32.91 ± 1.12% | 18.26 ± 4.90% | 64.2 ± 4.1 µM | 18 ± 1.02 µM | 202.5 °C
2 | O=C(CCCCCCCC(=O)NC1C2CC3CC(C2)CC1C3)NO (stereo not drawn) [compound 16, N^1-(Adamantan-2-yl)-N^9-Hydroxynonanediamide] | - (The ‘-’ mark indicates the lack of activity of the test substances (≤10%) in a particular test) | noticeable fibrillation inhibition | 49.5 ± 3.43 µM | noticeable fibrillation inhibition | 26.41 ± 2.58% | 16.27 ± 0.42% | > 100 µM | 0.74 ± 0.01 µM | 133.2 °C
